One test concerns the target PIK3CD (Human) (UniProt O00329). Nature of the test: Assessment of PIK3CD Kinase Activity.
The target in the next test is PIK3CG (human) (UniProt P48736). Nature of the test: Assessment of PIK3CG Kinase Activity.
A further test concerns the target PIK3CA (human) (UniProt P42336). Kind of test: Assessment of PIK3CA Kinase Activity.
The next test concerns the target PIK3CB (Human) (UniProt P42338). Nature of the test: Assessment of PIK3CB Kinase Activity.

A value given as a limit tells only on which side of the number the result lay.

PIK3CD (Human), sequence (O00329 whole entry, looked up): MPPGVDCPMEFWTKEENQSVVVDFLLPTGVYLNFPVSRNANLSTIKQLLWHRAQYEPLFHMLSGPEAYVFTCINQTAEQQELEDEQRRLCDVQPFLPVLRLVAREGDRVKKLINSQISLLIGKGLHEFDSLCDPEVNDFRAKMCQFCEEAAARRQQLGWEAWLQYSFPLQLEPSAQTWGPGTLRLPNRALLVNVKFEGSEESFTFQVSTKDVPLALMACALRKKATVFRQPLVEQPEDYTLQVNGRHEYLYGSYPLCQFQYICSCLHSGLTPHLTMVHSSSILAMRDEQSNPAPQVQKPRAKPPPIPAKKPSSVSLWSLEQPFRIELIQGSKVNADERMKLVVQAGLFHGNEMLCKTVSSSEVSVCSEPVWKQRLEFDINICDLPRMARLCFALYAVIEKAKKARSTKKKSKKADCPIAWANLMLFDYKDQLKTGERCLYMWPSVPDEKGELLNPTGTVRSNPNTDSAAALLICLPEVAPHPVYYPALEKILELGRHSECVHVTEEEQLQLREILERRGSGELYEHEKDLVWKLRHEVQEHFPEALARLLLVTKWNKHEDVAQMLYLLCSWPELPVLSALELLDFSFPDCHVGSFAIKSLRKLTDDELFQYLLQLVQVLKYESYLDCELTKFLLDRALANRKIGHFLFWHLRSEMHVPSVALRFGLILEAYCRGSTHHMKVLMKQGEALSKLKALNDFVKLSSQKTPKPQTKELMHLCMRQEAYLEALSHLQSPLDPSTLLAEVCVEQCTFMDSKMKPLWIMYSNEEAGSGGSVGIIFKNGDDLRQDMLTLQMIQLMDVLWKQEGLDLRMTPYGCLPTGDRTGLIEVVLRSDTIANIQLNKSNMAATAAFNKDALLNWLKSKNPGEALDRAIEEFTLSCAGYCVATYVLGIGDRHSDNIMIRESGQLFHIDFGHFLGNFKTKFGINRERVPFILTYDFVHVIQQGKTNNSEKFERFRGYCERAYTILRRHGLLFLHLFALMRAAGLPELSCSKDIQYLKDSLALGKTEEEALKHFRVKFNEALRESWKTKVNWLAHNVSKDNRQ
PIK3CB (Human), sequence (P42338 whole entry, looked up): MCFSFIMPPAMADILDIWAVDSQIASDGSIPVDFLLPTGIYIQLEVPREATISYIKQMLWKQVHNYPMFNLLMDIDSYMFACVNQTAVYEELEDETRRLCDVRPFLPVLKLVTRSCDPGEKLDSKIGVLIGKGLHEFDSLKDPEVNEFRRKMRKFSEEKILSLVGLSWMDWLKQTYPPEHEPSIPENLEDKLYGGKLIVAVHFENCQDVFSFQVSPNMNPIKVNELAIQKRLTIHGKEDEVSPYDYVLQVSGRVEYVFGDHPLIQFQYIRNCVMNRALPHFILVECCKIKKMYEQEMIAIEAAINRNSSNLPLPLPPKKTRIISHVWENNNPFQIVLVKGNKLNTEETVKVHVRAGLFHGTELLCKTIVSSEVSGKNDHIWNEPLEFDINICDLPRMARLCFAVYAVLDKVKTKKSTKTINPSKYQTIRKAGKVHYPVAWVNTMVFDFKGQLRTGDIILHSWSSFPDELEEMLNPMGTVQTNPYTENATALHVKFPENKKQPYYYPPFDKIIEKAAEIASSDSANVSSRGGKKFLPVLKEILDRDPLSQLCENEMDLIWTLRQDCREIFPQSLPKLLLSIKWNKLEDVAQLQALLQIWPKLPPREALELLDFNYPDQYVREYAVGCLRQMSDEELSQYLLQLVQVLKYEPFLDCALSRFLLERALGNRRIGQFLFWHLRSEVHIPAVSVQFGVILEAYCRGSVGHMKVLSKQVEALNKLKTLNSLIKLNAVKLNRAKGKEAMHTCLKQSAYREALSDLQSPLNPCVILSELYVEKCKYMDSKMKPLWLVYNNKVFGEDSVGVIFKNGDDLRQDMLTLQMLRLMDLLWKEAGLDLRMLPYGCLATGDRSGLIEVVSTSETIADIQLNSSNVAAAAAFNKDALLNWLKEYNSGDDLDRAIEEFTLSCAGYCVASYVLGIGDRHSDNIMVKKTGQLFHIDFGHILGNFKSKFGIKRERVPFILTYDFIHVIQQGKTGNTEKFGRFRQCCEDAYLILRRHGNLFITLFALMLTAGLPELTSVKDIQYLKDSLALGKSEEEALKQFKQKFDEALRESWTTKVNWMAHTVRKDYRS
PIK3CG (human), sequence (P48736 whole entry, looked up): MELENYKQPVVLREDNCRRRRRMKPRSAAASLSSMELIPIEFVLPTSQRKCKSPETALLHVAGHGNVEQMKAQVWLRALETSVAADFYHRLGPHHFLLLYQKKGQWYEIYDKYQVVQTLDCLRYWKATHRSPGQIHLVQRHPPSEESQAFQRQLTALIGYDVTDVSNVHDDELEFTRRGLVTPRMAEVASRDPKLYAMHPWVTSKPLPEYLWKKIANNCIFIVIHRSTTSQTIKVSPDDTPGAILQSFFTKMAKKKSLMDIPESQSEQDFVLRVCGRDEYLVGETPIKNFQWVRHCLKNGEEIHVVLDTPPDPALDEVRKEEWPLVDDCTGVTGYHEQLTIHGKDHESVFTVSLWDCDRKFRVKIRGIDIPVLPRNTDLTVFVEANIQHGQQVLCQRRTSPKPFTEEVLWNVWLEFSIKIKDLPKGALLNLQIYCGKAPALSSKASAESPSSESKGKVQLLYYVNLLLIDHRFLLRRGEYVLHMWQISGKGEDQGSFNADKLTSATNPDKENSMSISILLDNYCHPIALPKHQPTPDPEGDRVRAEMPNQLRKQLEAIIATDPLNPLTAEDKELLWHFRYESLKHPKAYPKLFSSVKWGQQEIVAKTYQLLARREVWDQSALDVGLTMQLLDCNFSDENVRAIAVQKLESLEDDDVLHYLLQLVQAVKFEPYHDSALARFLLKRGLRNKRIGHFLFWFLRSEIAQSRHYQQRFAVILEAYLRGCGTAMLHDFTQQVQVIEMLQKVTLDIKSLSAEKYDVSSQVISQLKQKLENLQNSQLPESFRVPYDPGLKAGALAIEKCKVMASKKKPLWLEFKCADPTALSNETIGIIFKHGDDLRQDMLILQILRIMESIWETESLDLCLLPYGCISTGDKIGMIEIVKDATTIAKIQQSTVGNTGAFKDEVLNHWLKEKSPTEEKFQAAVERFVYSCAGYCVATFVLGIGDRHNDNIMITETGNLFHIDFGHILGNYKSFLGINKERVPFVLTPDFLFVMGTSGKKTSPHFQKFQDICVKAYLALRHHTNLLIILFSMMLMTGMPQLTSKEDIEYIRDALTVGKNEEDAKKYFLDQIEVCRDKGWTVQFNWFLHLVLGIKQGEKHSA
PIK3CA (human), sequence (P42336 whole entry, looked up): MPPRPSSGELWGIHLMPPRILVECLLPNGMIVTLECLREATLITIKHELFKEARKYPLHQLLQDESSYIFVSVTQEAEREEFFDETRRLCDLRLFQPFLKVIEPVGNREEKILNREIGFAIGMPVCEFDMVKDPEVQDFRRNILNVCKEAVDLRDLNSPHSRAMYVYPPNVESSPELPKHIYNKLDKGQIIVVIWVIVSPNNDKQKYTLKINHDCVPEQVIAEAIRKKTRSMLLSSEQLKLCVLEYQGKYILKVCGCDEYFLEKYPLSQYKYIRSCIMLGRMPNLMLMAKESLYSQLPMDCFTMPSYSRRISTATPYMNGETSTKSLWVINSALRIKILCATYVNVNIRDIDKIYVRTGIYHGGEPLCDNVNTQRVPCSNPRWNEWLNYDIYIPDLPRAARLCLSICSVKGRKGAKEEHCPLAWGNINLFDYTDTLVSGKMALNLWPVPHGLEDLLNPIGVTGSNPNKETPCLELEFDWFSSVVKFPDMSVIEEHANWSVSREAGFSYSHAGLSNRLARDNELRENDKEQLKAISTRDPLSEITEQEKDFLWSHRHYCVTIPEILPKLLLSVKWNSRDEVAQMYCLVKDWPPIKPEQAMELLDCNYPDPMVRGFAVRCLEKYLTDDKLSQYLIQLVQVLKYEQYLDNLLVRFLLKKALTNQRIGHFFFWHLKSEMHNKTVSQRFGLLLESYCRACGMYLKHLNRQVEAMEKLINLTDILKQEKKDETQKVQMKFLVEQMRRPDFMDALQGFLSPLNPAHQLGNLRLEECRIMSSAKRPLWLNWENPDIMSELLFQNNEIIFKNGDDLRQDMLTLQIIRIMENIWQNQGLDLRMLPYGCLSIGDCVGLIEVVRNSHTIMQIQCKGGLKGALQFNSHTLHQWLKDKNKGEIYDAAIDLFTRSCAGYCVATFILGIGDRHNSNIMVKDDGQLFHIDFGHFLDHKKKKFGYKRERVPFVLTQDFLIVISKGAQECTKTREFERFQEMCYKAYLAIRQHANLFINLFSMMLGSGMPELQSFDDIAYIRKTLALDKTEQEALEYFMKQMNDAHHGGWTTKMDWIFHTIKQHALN

As a reminder, the IC50 is the midpoint of a concentration-inhibition curve. On to `CC(c1cc2ccccc2nc1-c1ccccc1)n1nc(-c2cc(O)cc(F)c2)c2c(N)ncnc21` (configuration not stated), for which the IC50 against PIK3CD (Human) is ≤ 100 nM; at PIK3CG (human), ≤ 100 nM; on PIK3CA (human) it was 100 to 1000 nM; at PIK3CB (Human), 100 to 1000 nM.

Consider `CN1CCN(c2nc3ccccc3cc2Cn2nc(-c3ccc4nc(N)sc4c3)c3c(N)ncnc32)CC1`, for which the IC50 on PIK3CD (Human), against PIK3CG (human), against PIK3CA (human) and against PIK3CB (Human) was ≤ 100 nM each time.

Take `CN1CCN(c2nc3ccccc3nc2Cn2nc(-c3cc(O)cc(F)c3)c3c(N)ncnc32)CC1`: the values for the IC50 at PIK3CD (Human) and at PIK3CB (Human) were ≤ 100 nM and 100 to 1000 nM, respectively.

On to `Nc1ncnc2c1c(-c1ccc3cn[nH]c3c1)nn2Cc1cc2ccccc2nc1N1CCCC1`, for which the IC50 against PIK3CD (Human) is ≤ 100 nM.

Turning to `Nc1ncnc2c1c(C=C1SC(=O)NC1=O)nn2Cc1cc2ccccc2nc1-c1ccccc1F`, the IC50 on PIK3CD (Human) and at PIK3CG (human) was ≤ 100 nM throughout.

Consider `Nc1nc2ccc(-c3nn(Cc4cc5ccccc5nc4-c4ccccc4C(F)(F)F)c4ncnc(N)c34)cc2[nH]1`, for which, on PIK3CD (Human), the IC50 is ≤ 100 nM.

Turning to `Cc1ccccc1-c1nc2ccccc2cc1Cn1nc(-c2ccc3nc(N)sc3c2)c2c(N)ncnc21`, the half-inhibitory concentration (IC50) on PIK3CD (Human) and at PIK3CG (human) was ≤ 100 nM each time.

`CC(=O)Nc1nc2ccc(-c3nn(Cc4nc5ccccc5nc4N4CCCC4)c4ncnc(N)c34)cc2s1`: the half-inhibitory concentration (IC50) on PIK3CD (Human), on PIK3CG (human) and at PIK3CA (human) was ≤ 100 nM each time.

In the case of `CC(=O)Nc1nc2ccc(-c3nn(Cc4nc5ccccc5nc4N4CCN(C)CC4)c4ncnc(N)c34)cc2s1`, the IC50 is ≤ 100 nM against PIK3CD (Human), 100 to 1000 nM against PIK3CG (human), 100 to 1000 nM against PIK3CA (human) and ≤ 100 nM on PIK3CB (Human).

For `Nc1nc2ccc(-c3nn(Cc4nc5ccccc5nc4N4CCCC4)c4ncnc(N)c34)cc2s1`, the IC50 was ≤ 100 nM against PIK3CD (Human), ≤ 100 nM on PIK3CG (human) and 100 to 1000 nM against PIK3CA (human).

As for `Cc1nccn1-c1nc2ccccc2cc1Cn1nc(-c2ccc3nc(N)sc3c2)c2c(N)ncnc21`, the results for the IC50 on PIK3CD (Human) and against PIK3CA (human) were ≤ 100 nM and 100 to 1000 nM, respectively.

Consider `Nc1ncc(-c2nn(Cc3cc4ccccc4nc3-c3ccccc3)c3ncnc(N)c23)cn1`, for which, on PIK3CD (Human), the IC50 was 100 to 1000 nM.

At PIK3CD (Human), `NC(=O)C=Cc1nn(Cc2cc3ccccc3nc2-c2ccccc2F)c2ncnc(N)c12` had an IC50 of 100 to 1000 nM.

In the case of `CCC(c1cc2ccccc2nc1N1CCCC1)n1nc(C#C[C@@H](C)O)c2c(N)ncnc21` (some centres not stated), the IC50 on PIK3CD (Human) was ≤ 100 nM.

For `Nc1ncnc2c1c(-c1cccc(O)c1)nn2Cc1cc2ccccc2nc1-c1cccnc1`, on PIK3CD (Human), the IC50 was ≤ 100 nM.

These data come from the Kinase Knowledgebase extract (Sharma et al. 2016).
